Results published in patent US20070135412A1, “Compounds for the treatment of ocular dryness caused by photorefractive surgery” (priority 2003, published 2007).

Assays:
[1] = tested on: fibres innervating the cornea (polymodal nociceptive fibres); assay: Extracellular recording of corneal nerve fibres in cats with a corneal wound, before and after topical drug application; format: in vivo, cat; conditions: anaesthetized cats 7 and 15 days after circular corneal wound; for responses evoked by pulses of CO2 of 30 s duration: 98% CO2 on receptor field around the lesion, before vs after topical application (same concentration ranges); for spontaneous activity of the fibres innervating the zones around the lesion: before vs after topical application (carbamazepine 0.001-0.01%, phenyloin 0.001-0.1%, mexiletine 0.001-0.1%, lidocaine 0.0005-0.01%, tocaidine 0.001-0.01%)
Experimental: Tests were carried out on fifteen adult cats of both sexes, anaesthetized with pentobarbital sodium (Nembutal, 40 mg/kg, i.p.). The cornea of both eyes was anaesthetized topically by instillation of tetracaine 0.1% and oxybuprocaine hydrochloride 0.4%.
A circular wound was made in the centre of the cornea with a 5 mm dia. trepan which penetrated 40-50 μm below the Bowman membrane. The animals were treated with topical and systemic antibiotics, leaving them to recover for 1-2 weeks.
The recording tests were carried out 7 and 15 days after surgery. The animals were anaesthetized with Nembutal (40 mg/kg, i.p.) and were maintained in a state of areflexia during the experiment by intravenous infusion of dilute Nembutal (5 mg/kg) in the saphenous vein. The animals breathed spontaneously through a tracheal cannula. Respiratory CO2, rectal temperature and arterial pressure were monitored continuously and were kept stable. The animals were sacrificed with an overdose of Nembutal at the end of the experiment.
Extracellular recording was made of nerve fibres isolated from the cornea, obtained from the ciliary nerves of the eye, using silver/silver chloride electrodes and conventional electrophysiological equipment, as described previously (cf. Belmonte, C., Gallar, J., Pozo, M. A., Rebollo, I. (1991) Excitation by irritant chemical substances of sensory afferent units in the cat's cornea. J. Physiol. 437: 709-725).
The corneal sensory fibres were identified by their response to mild stimulation with a wet brush. The mechanical threshold was measured with a Cochet-Bonnet aesthesiometer with a No. 12 filament (0.1-1.9 mN) and with calibrated von Frey hairs (0.002-2.0 N). The receptor fields were mapped with a suprathreshold force hair. Sensitivity to chemical stimuli was investigated by applying a pulse of gas containing 98% CO2 at a flow rate of 80 ml/min on the receptor field for 30 s.
The conduction velocity was measured by observing the latency to electric shocks (0.1-0.5 ms, 0.5-3.0 mA) applied on the receptor field with a pair of silver electrodes 3-5 mm apart. The conduction distance was estimated with a silk thread of 0.8 G positioned on the path of the nerve.
The nerve discharges and the stimulation pulses were recorded on an FM magnetic tape recorder for off-line computer analysis with suitable software (CED 1401plus and Spike2 for Windows). The spontaneous activity (average discharge frequency in pulses per second) and the changes in discharge caused by the various stimuli were measured.
The fibres were classified as peripheral and central according to the localization of their receptor field. […] Depending on the localization of the receptor field the fibres were classified as far from the wound or close to or bordering on the wound. The control data were obtained from intact corneas.
The response of the polymodal nociceptive fibres to chemical stimulation was investigated in the fibres whose receptor field touched the damaged area and in those whose receptor field was outside of and far from the lesion. The spontaneous activity and the discharge of the fibres in response to stimulation with CO2 were measured before and after topical application of carbamazepine (0.001-0.01%), phenyloin (5,5-diphenylhydantoin) (0.001-0.1%), mexiletine (0.001-0.1%), lidocaine (0.0005-0.01%) and tocaidine (0.001-0.01%).

[2] = tested on: sensations of ocular dryness that appear after photorefractive surgery of the LASIK type; assay: Clinical study of topical carbamazepine versus placebo on ocular dryness after LASIK surgery; format: in vivo, human; conditions: ophthalmic solution at 0.01%, one drop in the operated eye twice a day for 14 days after LASIK
Experimental: A clinical study was carried out for comparing the attenuating effect produced by the topical administration of carbamazepine and of a placebo on the sensations of ocular dryness that appear after photorefractive surgery of the LASIK type. The study included 124 subjects, men and women in the age range 21-45 years, who underwent routine, elective, unilateral LASIK surgery for correction of myopia. The carbamazepine was administered in ophthalmic solution at 0.01%. After surgery, the subjects received one drop of the study medication in the operated eye, twice a day for 14 consecutive days. Postoperative examinations were carried out on days 1, 3, 7 and 14. The efficacy of the treatment was assessed by measuring the sensation of ocular dryness, pain intensity, and the overall analgesic efficacy, employing independent visual-analogy scales. The symptoms of eye inflammation, burning/stinging sensations, lacrimation etc. were also recorded.

| Compound | responses evoked by pulses of CO2 of 30 s duration [1] | spontaneous activity of the fibres innervating the zones around the lesion [1] | incidence of symptoms of dryness throughout the day [2] | incidence of the symptoms of ocular dryness ([2]; statistically significant) |
| --- | --- | --- | --- | --- |
| Cc1cccc(C)c1NC(=O)C(C)N (stereo not drawn) [tocaidine] | dose-dependent decrease | dose-dependent decrease | – | – |
| NC(=O)N1c2ccccc2C=Cc2ccccc21 [carbamazepine] | dose-dependent decrease | dose-dependent decrease | significantly lower | more reduced incidence |
| CCN(CC)CC(=O)Nc1c(C)cccc1C [lidocaine] | dose-dependent decrease | dose-dependent decrease | – | – |
| Cc1cccc(C)c1OCC(C)N (stereo not drawn) [mexiletine] | dose-dependent decrease | dose-dependent decrease | – | – |
| O=C1NC(=O)C(c2ccccc2)(c2ccccc2)N1 [phenyloin, 5,5-diphenylhydantoin] | dose-dependent decrease | dose-dependent decrease | – | – |
